Patent publication EP0184990A1, “Alkylidenedioxy compounds” (CIBA-GEIGY AG, priority 1984, dated 1986)
Read-outs that look alike come from different tables or passages of the source.

How the values were obtained:
[1] = Maximum tolerated dose in mice after single administration; set-up: species or system Mäusen; settings: mouse, in vivo, 7-day observation, read-out: maximal tolerierte Dosis
Description: Die pharmakologische Wirksamkeit der Verbindungen der vorliegenden Erfindung ist begleitet von einer guten Verträglichkeit. So liegt die maximal tolerierte Dosis für das obengenannte 6,6-Dimethyl-4,5-dihydro-6H-(1,3-dioxolo)r3,41naphthor1,2-blpyran in Mäusen nach einmaliger p.o- und i.p.-Verabreichung und anschliessender 7-tägiger Beobachtungsdauer über 2500 mg/kg bzw. über 1250 mg/kg.

[2] = tested on: Rauscher-Leukämie-Virus (RLV, ein RNS-Tumorvirus); assay: Rauscher leukaemia virus infection in mice, survival time; format: in vivo, weibliche Balb/c-Mäuse; settings: 20 p.o. administrations of 125 mg/kg each, female Balb/c mice infected with Rauscher leukaemia virus; controls 31,7 Tage (p < 0,001 Cox-Test)
From the text: Die Wirkung auf Virusinfektionen kann anhand von in vivo-Testanordnungen festgestellt werden. So besitzen Verbindungen der Formel I in Tierexperimenten bei gewissen neoplastischen Krankheiten, die durch RNS-Tumorviren hervorgerufen werden, oder bei denen RNS-Tumorviren nachweisbar sind, eine starke Wirksamkeit. Sie verlängern z.B. die mittlere Ueberlebensdauer von Mäusen nach Infektion mit Rauscher-Leukämie-Virus (RLV, ein RNS-Tumorvirus).
Bei den Versuchen mit Rauscher-Leukämie 4 Q (NIH) werden weibliche Balb/c-Mäuse (28 bis 34 Tage alt) mit 0,2 ml einer zehnfach mit Hanks Lösung verdünnten Virussuspension aus Milzmaterial von 4-6 Wochen vorher infizierten Mäusen infiziert. […] Die erste Verabreichung erfolgt 30 Minuten vor der Infektion, weitere Verabreichungen täglich einmal und fünfmal in der Woche während 4 Wochen. Als Kriterium für die Wirkung dient die Verlängerung der Ueberlebenszeit. Während bei den Kontrolltieren ab 30 Tagen nach der Infektion eine Leukämie mit leukämischen Blutzellen von über 50000/mm^3 gefunden werden können und die Tiere zu sterben beginnen, wird die Ueberlebenszeit der mit 125 mg/kg p.o. der Testsubstanz behandelten weiblichen Mäuse signifikant verlängert. […]

In the case of CC1(C)CCc2c3c(c4ccccc4c2O1)OCO3 [Beispiel 1, 6,6-Dimethyl-4,5-dihydro-6H-(1,3-dioxolo)f3,41-naphthof1,2-blpyran], the MTD at 168 h ([1]; ip, single i.p. administration) is reported as greater than 1250 mg/kg, the MTD at 168 h ([1]; po, single p.o. administration) is reported as greater than 2500 mg/kg and the Ueberlebenszeit [2] is reported as 60,9 Tage.
